Test system: MK-801-induced disruption in spatial delayed alternation
Assay: Spatial delayed alternation test (T-maze)
Format: in vivo, Wistar rats
Conditions: 10 mg/kg, 30 min prior to MK-801 (0.1 mg/kg), rats
Protocol: The spatial delayed alternation test was performed using a wooden T-maze, according to [Sławińska et al., 2013] and [Wierońska et al., 2015b].
During the adaptation phase, lasting 3 days, the animals were allowed to freely explore the maze for 10 min. For the next 2 days, rats were confined to either of the two end-arms and allowed to drink a 10 % sucrose solution there for 10 min twice daily. On the following day, a 2-week training phase was started. The animals performed one training session per day, which consisted of one forced trial (i.e., one of the end-arms was closed) followed by ten free choice trials. During the free choice trial the animal was placed in the starting arm and after the guillotine door was raised, it was allowed to choose to enter one of the end-arms. After the response, the rat was placed back to the starting arm, where it stayed for 10 s. If the chosen end-arm was the opposite to the previously visited one, a correct response was scored, and the animal was closed in the compartment where it was allowed to drink the sucrose solution for 5 s. After an incorrect response, the animal was gently returned to the starting arm. The training phase was carried out until the animals scored 7 correct responses in a training session in 2 consecutive days.
The test was started 30 min after the MK-801 injection.

COc1ccc(-c2cc3onc(-c4ccncc4)c3c(=O)n2C)cc1 [MMPIP, 6-(4-Methoxyphenyl)-5-methyl-3-(4-pyridinyl)-isoxazolo(4,5-c)pyridin-4(5H)-one]
Effect on MK-801-induced reduction of choice accuracy (spatial delayed alternation): rescued the MK-801–induced cognitive impairments

— PMC6158327, “Negative Allosteric Modulators of mGlu7 Receptor as Putative Antipsychotic Drugs” (Frontiers in Molecular Neuroscience, 2018)
